From article PMC4669722, “Antitumour potential of BPT: a dual inhibitor of cdk4 and tubulin polymerization” (Cell Death & Disease, 2015)
Entries after “also recorded” stand apart in the source; their conditions may differ. Where two headings read alike, the source gives them in different places.

Columns and labels:
[1] = target: EGFR (Homo sapiens, UniProt P00533); assay: Kinase profiling (Millipore), EGFR; type: biochemical
Protocol: (§1) The in vitro kinase assays for testing against Cdk4-cyclin D1, Cdk2-cyclin A, Cdk1-cyclin B1 and Cdk9-cyclin T1 were performed in-house. The methodology and results have been reported previously.[20], [30], [31], [32], [45] The kinase profiling for 58 representative kinases was carrried out commercially at Millipore Bioscience Division, Livingston, UK.

[2] = system: A549 cells; assay: Flow cytometric cell cycle analysis, A549; type: cell-based, human; settings: 24 h
Protocol: The untreated (control) and treated (with test compounds) cells were harvested by trypsinization, washed once with PBS and then fixed in 70% chilled (−20 °C) ethanol for minimum 1 h. After the fixation step, cells were centrifuged for 5 min at 3000 × g at room temperature, and the pellet was suspended in PBS containing 50 μg/ml propidium iodide (Sigma-Aldrich, Dorset, UK; cat. no. P-4170) and 0.5 mg/ml DNase-free ribonuclease (Sigma-Aldrich; cat. no. R-5503). The cells were stained for 1 h in the dark at 4 °C. Cell cycle analysis was performed on the Beckman Coulter (Epics Altra) fluorescence-activated cell sorter (Beckman Coulter UK Ltd, Buckinghamshire, UK). To gate all the events that represent single cells, and not cell doublets or cell clumps, the following analyses were performed on the samples. Cytograms of propidium iodide fluorescence peak signal versus integrated fluorescence or the linear signal were plotted. All data points on the straight line were isolated in a single gate and the gated data was further used for plotting a histogram that represents a complete cell cycle. The total number of events was not allowed to exceed 200 events per s. Data acquisition was stopped after a minimum of 10 000 events had been collected.

[3] = target: Cdk5-p35 (Homo sapiens, UniProt Q00535); assay: Kinase profiling (Millipore), Cdk5-p35; type: biochemical
Protocol: as §1

[4] = system: BNL CL2 (mouse normal hepatic cells); assay: Cell proliferation (MTT) assay, BNL CL2; type: cell-based
Protocol: (§2) All 10 human cancer cell lines were maintained at 37 °C in 5% CO2 in RPMI-1640 medium, supplemented with 10% foetal calf serum and 100 μg/ml normocin. The 10 cancer cell lines used for screening were all obtained from ATCC (Manassas, VA, USA); they were the NSCLC (a form of cancer that is resistant to chemotherapy) lines: NCI-H460 (pRb^+, p53^+), A549 (pRb^+, p53^+), Calu-1 (pRb^+, p53-null), NCI-H1299 (pRb^+, p53-null), NCI-H358 (pRb-null, p53-null); the colon cancer line LS174T (pRb^+, p53^+); the prostate cancer line PC-3 (pRb^+, p53-null); the pancreatic cancer line MiaPaca (pRb^+, p53-mutant). The genotypes within brackets indicate the status of the tumour suppressor proteins pRb and p53. The mouse embryonic normal hepatic cell line (BNL CL2) and its SV40 large T-antigen-transformed counterpart cell line (BNL SV A.8) were also purchased from ATCC. The large T-antigen inactivates the tumour suppressor proteins p53 and pRb. The detailed procedure of cell proliferation (MTT) assay and IC50 determination was described previously.[32]

[5] = system: HCT-116 tumours; assay: HCT-116 xenograft efficacy in SCID mice; type: in vivo; settings: 100 mpk intraperitoneal, 9 days, versus vehicle, P<0.05
Protocol: A group of 60 SCID (SCID strain-CBySmn.CB17-Prkdc^scid/J; The Jackson Laboratory, Bar harbor, ME, USA; Stock no. 001803) male mice weighing 18–25 g and 6–8 weeks old were used for the studies. Human colon carcinoma, HCT-116 (ATCC; cat. no. CCL-247) cells were grown in McCoy's 5A medium supplemented with 10% FBS (Sigma-Aldrich). The cultured cells were injected subcutaneously into the dorsal side of SCID mice at the dose of 6.6 × 10^6 cells in 0.2 ml of suspension. When the tumour growth reached to about 4–6 mm in diameter (over about 5 days), the animals were randomly divided into eight groups, each containing seven mice. The treatments were continued for 9 consecutive days intraperitoneally. Flavopiridol (2.5 mpk) was used as a positive control in this study. Tumour size was recorded at 2–5 day intervals. Tumour weight (mg) was estimated according to the formula for a prolate ellipsoid: (length (mm) × width (mm)^2) × 0.5) assuming specific gravity to be one and π to be 3. Tumour growth in compound treated animals is calculated as T/C (treated/control) × 100% and growth inhibition percent (% GI) was (100−% T/C).[48], [49], [50]

[6] = system: NCI-H358 (NSCLC; p53 null, pRb null); assay: Cell proliferation (MTT) assay, NCI-H358; type: cell-based; settings: Homo sapiens, 48 h, read-out: IC50 cell growth inhibition, NCI-H358
Protocol: as §2

[7] = system: PC-3 (prostate; p53 null, pRb+); assay: Cell proliferation (MTT) assay, PC-3; type: cell-based; settings: Homo sapiens, 48 h, read-out: IC50 cell growth inhibition, PC-3
Protocol: as §2

[8] = MTD finding study; type: in vivo; settings: mice
Protocol: Swiss-albino mice were used to determine the MTD for the compound. BPT was weighed and mixed with 0.5% (w/v) carboxymethylcellulose and triturated with Tween-20 (secundum artum) with gradual addition of water to make up the final concentration. Care was taken not to exceed >0.25% of Tween-20 in the final formulation of the BPT. In this study, six animals per group were administered with BPT at different doses for 5 days (Q1D × 5) via intraperitoneal route. Animals were monitored for weight loss, morbidity symptoms and mortality up to 2 weeks by the end of treatment. Significant weight loss was considered when mean animal weight dropped by ⩾10% and was considered highly significant when the drop was ⩾20%.

[9] = system: NCI-H460 (NSCLC; p53+, pRb+); assay: Cell proliferation (MTT) assay, NCI-H460; type: cell-based; settings: Homo sapiens, 48 h, read-out: IC50 cell growth inhibition, NCI-H460
Protocol: as §2

[10] = system: panel of 58 representative kinases; assay: Kinase profiling, panel of 58 representative kinases; type: biochemical; settings: at 10 μM
Protocol: as §1

[11] = BNL CL2, concentration used in long-term survival assay (Fig. S3)

Chain of EGFR (P00533 25-1210): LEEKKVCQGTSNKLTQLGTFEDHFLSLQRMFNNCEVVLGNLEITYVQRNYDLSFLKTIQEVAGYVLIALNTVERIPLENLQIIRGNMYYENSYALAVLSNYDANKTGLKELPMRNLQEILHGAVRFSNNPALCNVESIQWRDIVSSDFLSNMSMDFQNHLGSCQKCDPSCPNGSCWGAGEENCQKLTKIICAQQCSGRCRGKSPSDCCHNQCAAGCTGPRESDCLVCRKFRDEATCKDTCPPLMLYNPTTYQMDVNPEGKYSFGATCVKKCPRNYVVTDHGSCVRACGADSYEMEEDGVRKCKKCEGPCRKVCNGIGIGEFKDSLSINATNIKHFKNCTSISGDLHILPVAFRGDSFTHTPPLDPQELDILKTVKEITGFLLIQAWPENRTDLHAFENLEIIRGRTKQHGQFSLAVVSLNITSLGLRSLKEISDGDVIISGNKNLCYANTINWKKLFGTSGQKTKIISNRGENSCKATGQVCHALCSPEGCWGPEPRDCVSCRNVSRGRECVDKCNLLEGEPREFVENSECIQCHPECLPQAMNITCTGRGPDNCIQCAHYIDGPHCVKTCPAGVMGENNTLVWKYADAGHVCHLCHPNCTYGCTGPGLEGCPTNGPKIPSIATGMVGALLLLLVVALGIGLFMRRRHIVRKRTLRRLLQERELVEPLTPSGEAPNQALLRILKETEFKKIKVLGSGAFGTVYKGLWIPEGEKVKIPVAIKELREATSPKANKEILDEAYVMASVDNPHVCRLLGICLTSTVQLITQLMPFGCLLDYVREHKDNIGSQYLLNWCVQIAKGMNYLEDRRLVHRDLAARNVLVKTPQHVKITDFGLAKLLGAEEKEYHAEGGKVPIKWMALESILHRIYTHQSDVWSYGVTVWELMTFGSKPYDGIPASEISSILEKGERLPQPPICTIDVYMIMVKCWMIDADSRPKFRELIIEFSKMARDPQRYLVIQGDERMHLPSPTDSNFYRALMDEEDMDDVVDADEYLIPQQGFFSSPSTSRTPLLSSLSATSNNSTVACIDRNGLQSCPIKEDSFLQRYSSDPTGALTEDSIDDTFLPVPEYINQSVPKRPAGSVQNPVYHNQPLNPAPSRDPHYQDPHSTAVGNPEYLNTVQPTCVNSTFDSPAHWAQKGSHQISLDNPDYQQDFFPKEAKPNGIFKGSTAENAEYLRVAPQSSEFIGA
Chain of Cdk5-p35 (Q00535 whole entry): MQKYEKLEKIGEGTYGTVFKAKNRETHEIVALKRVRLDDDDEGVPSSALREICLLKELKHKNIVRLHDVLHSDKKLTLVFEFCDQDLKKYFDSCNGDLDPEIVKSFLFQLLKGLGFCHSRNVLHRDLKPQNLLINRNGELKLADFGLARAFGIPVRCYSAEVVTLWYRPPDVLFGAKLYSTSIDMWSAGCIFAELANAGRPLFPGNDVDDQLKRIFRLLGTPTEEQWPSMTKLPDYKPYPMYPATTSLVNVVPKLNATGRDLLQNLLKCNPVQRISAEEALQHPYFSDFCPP
Chain of Cdk5-p35 (Q15078 whole entry partner): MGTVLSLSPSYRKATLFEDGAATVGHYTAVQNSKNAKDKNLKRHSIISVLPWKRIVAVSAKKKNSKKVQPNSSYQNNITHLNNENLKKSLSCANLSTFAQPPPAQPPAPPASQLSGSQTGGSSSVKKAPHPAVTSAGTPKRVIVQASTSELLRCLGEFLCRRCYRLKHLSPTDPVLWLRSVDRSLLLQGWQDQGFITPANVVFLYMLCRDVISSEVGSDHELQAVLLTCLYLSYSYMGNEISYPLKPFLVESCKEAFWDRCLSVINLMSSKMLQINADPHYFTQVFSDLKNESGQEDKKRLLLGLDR

SMILES: O=C(c1ccccc1-c1ccccc1)N1CCc2c([nH]c3ccccc23)C1 [BPT, 2-(biphenyl-2-carbonyl)-2,3,4,9-tetrahydro-1H-pyrido[3,4-b]indole]
- IC50 [1]: > 10000 nM
- cells in G2/M ([2]; A549, IC50 concentration): 82%
- cells in G0/G1 ([2]; A549, IC70 concentration): 15%
- cells in G2/M ([2]; A549, IC70 concentration): 59%
- cells in Sub G1 (apoptotic) ([2]; A549, IC70 concentration): 13%
- IC50 [3]: > 10000 nM
- IC30 [4, 11]: 400 nM
- IC70 [4, 11]: 900 nM
- IC50 ([4]; Mus musculus, BNL CL.2, 48 h, MTT, read-out: IC50 cell growth inhibition, BNL CL2): 720 nM
- IC20 ([4]; Mus musculus, BNL CL.2, BNL CL2, concentration used in long-term survival assay (Fig. S3)): 250 nM
- IC50 ([4]; Mus musculus, BNL CL.2, BNL CL2, concentration used in long-term survival assay (Fig. S3), read-out: IC50): 600 nM
- tumour growth inhibition [5]: ~ 80%
- IC50 [6]: 680 nM
- IC50 [7]: 740 nM
- maximum-tolerated dose [8]: 1000 mg/kg
- IC50 [9]: 600 nM
- inhibition of other kinases (panel of 58) [10]: no inhibition against other kinases; also recorded: does not inhibit any kinase to any appreciable degree
